ChEMBL document CHEMBL1155021, “Spheciosterol sulfates, PKCzeta inhibitors from a philippine sponge Spheciospongia sp” (J Nat Prod, 2008)
Structures can show the parent of a compound that is named as a salt.

Biological target: T1, Protein kinase C zeta type (Homo sapiens, UniProt Q05513)
T1 sequence (Q05513 whole entry): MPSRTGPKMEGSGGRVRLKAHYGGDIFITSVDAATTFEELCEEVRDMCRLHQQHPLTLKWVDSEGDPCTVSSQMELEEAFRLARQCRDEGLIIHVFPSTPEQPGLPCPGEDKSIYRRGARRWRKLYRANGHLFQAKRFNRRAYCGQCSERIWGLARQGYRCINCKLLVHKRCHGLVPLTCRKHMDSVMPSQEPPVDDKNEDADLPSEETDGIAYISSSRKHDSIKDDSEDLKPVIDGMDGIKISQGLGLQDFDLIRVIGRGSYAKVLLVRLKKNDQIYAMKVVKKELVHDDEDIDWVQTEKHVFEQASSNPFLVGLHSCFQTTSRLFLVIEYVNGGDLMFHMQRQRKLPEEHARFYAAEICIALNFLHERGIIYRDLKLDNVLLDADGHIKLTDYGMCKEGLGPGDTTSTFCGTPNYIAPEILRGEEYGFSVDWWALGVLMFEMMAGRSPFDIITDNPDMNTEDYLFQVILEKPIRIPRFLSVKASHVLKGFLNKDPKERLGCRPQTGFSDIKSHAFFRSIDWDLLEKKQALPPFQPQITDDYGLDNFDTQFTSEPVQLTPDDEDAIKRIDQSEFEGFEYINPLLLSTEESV
Assay: Inhibition of PKCzeta by TR-FRET based LanthaScreen assay

With C=C(C)C(CC[C@@H](C)[C@H]1CC[C@@]2(C)[C@@H]3C[C@H](OS(=O)(=O)O)[C@H]4[C@@H](O)[C@H](OS(=O)(=O)O)[C@@H](OS(=O)(=O)O)C[C@]4(C)C3=CC[C@]12C)C(C)C (some centres undefined) [SPHECIOSTEROL SULFATE B] the IC50 was 530 nM.

With C=C(C)C(CC)CC[C@@H](C)[C@H]1CC[C@@]2(C)[C@@H]3C[C@H](OS(=O)(=O)O)[C@H]4[C@@H](O)[C@H](OS(=O)(=O)O)[C@@H](OS(=O)(=O)O)C[C@]4(C)C3=CC[C@]12C (some centres undefined) [SPHECIOSTEROL SULFATE A] the IC50 was 1590 nM.

CC(C)C1(CC[C@@H](C)[C@H]2CC[C@@]3(C)[C@@H]4C[C@H](OS(=O)(=O)O)[C@H]5[C@@H](O)[C@H](OS(=O)(=O)O)[C@@H](OS(=O)(=O)O)C[C@]5(C)C4=CC[C@]23C)CC1C (some centres undefined) [TOPSENTIASTEROL SULFATE E] gave an IC50 of 1210 nM.

In the case of C=C(C)C(C)(C)C(C)CC[C@@H](C)[C@H]1CC[C@@]2(C)[C@@H]3C[C@H](OS(=O)(=O)O)[C@H]4[C@@H](O)[C@H](OS(=O)(=O)O)[C@@H](OS(=O)(=O)O)C[C@]4(C)C3=CC[C@]12C (some centres undefined) [SPHECIOSTEROL SULFATE C], the IC50 is reported as 110 nM.
